# According to patent publication US9545105B2, “1-(heterocyclic carbonyl) piperidines” (BAYER INTELLECTUAL PROPERTY GMBH, priority 2010, dated 2017):
# Test system: Pyrenophora teres
# Assay: In vivo preventive test on Pyrenophora teres (barley)
# Details: 500 ppm of active ingredient, evaluated 7-9 days after inoculation
# Description: Solvent: 49 parts by weight of N,N-dimethylformamide Emulsifier: 1 part by weight of alkylaryl polyglycol ether To produce a suitable preparation of active compound, 1 part by weight of active compound is mixed with the stated amounts of solvent and emulsifier, and the concentrate is diluted with water to the desired concentration. To test for preventive activity, young plants are sprayed with the preparation of active compound at the stated rate of application. One day after this treatment, the plants are inoculated with an aqueous spore suspension of Pyrenophora teres. The plants remain for 48 hours in an incubation cabinet at 22° C. and a relative atmospheric humidity of 100%. Then the plants are placed in a greenhouse at a temperature of approximately 20° C. and a relative atmospheric humidity of approximately 80%. The test is evaluated 7-9 days after the inoculation. 0% means an efficacy which corresponds to that of the untreated control while an efficacy of 100% means that no disease is observed.
row,SMILES,Efficacy
1,Cc1nn(C)c(F)c1C(=O)N1CCCCC1c1ccc2c(c1)OCCO2 (centres unmarked) [Example 64],95%
2,Cc1cc(C(=O)N2CCCCC2c2ccccc2C)c(C)o1 (centres unmarked) [Example 3],80%
3,Cc1cc(C(=O)N2CCCCC2c2cccc(Cl)c2)c(C)o1 (centres unmarked) [Example 46],90%
4,Cc1cc(C(=O)N2CCCCC2c2cc(Cl)ccc2Cl)c(C)o1 (centres unmarked) [Example 84],90%
5,CCc1nn(C)c(F)c1C(=O)N1CCCCC1Cc1ccccc1 (centres unmarked) [Example 131],100%
6,Cc1cc(C)cc(C2CCCCN2C(=O)c2cc(C)oc2C)c1 (centres unmarked) [Example 12],90%
7,Cn1nc(C(F)F)c(C(=S)N2CCCCC2c2cccc(Cl)c2)c1Cl (centres unmarked) [Example 50],100%
8,CCC(c1ccccc1Cl)C1CCCCN1C(=O)c1c(C(F)F)nn(C)c1Cl (centres unmarked) [Example 161],94%
9,Cc1cc(C(=O)N2CCCCC2c2ccc(Cl)cc2Cl)c(C)o1 (centres unmarked) [Example 79],80%
10,COc1cc(OC)cc(C2CCCCN2C(=O)c2cc(C)oc2C)c1 (centres unmarked) [Example 70],80%

# Test system: not listed separately
# Assay: log P by HPLC on reversed-phase column (C 18), EEC Directive 79/831 Annex V.A8
# Assay type: physicochemical
# Details: HPLC on reversed-phase column (C 18); 40° C.; 0.1% aqueous formic acid and acetonitrile; linear gradient 10% to 90% acetonitrile
# Description: In table 1, the log P values were determined in accordance with EEC Directive 79/831 Annex V.A8 by HPLC (High Performance Liquid Chromatography) on a reversed-phase column (C 18), using the method described below: Temperature: 40° C.; Mobile phases: 0.1% aqueous formic acid and acetonitrile; linear gradient from 10% acetonitrile to 90% acetonitrile. Calibration was carried out using unbranched alkan-2-ones (comprising 3 to 16 carbon atoms) with known log P values (determination of the log P values by the retention times using linear interpolation between two successive alkanones). lambda-max-values were determined using UV-spectra from 200 nm to 400 nm and the peak values of the chromatographic signals.
row,SMILES,logP
1,Cc1nn(C)c(F)c1C(=O)N1CCCCC1c1ccc2c(c1)OCCO2 (centres unmarked) [Example 64],2.39
2,Cc1cc(C(=O)N2CCCCC2c2ccccc2C)c(C)o1 (centres unmarked) [Example 3],3.73
3,Cc1cc(C)cc(C2CCCCN2C(=O)c2nnsc2C)c1 (centres unmarked) [Example 15],3.60
4,Cc1cc(C)cc(C2CCCCN2C(=O)c2sc(C)nc2Cl)c1 (centres unmarked) [Example 28],4.06
5,Cc1cc(C(=O)N2CCCCC2c2cccc(Cl)c2)c(C)o1 (centres unmarked) [Example 46],4.04
6,CCn1ncc(Cl)c1C(=O)N1CCCCC1c1cc(C)cc(C)c1 (centres unmarked) [Example 32],4.34
7,Cc1cc(C)cc(C2CCCCN2C(=O)c2cn(C)nc2[N+](=O)[O-])c1 (centres unmarked) [Example 14],3.09
8,Cc1cc(C)cc(C2CCCCN2C(=O)c2cn(C)nc2C(Cl)Cl)c1 (centres unmarked) [Example 24],3.85
9,Cc1cc(C)cc(C2CCCCN2C(=O)c2snnc2C)c1 (centres unmarked) [Example 17],3.71
10,CCc1noc(C)c1C(=O)N1CCCCC1c1ccc(Cl)cc1 (centres unmarked) [Example 52],3.51
11,Cc1cc(C(=O)N2CCCCC2c2ccc3c(c2)OCCO3)c(C)o1 (centres unmarked) [Example 62],3.25
12,Cc1cc(C)cc(C2CCCCN2C(=O)c2snnc2C(C)C)c1 (centres unmarked) [Example 16],4.59
13,Cc1cc(C)cc(C2CCCCN2C(=O)c2scnc2C)c1 (centres unmarked) [Example 29],3.25
14,Cn1nc(C(F)F)c(C(=O)N2CCCCC2c2ccc3c(c2)OCCO3)c1Cl (centres unmarked) [Example 66],2.99
15,CCc1noc(C)c1C(=O)N1CCCCC1c1ccccc1C (centres unmarked) [Example 2],3.19
16,Cc1cc(C)cc(C2CCCCN2C(=O)c2sc(Cl)nc2C)c1 (centres unmarked) [Example 25],4.49
17,Cc1cc(C)cc(C2CCCCN2C(=O)c2sc(Cl)nc2Cl)c1 (centres unmarked) [Example 23],4.86

row,SMILES,logP
1,Cc1cc(C)cc(C2CCCCN2C(=O)c2ccsc2I)c1 (centres unmarked) [Example 35],4.21
2,CCc1noc(C)c1C(=O)N1CCCCC1c1ccc2c(c1)OCCO2 (centres unmarked) [Example 61],2.82
3,Cc1cc(C)cc(C2CCCCN2C(=O)c2c(C)oc(C)c2Br)c1 (centres unmarked) [Example 33],4.93
4,CCn1nc(C)c(C(=O)N2CCCCC2c2cc(C)cc(C)c2)c1F (centres unmarked) [Example 20],3.67
5,Cc1cc(C)cc(C2CCCCN2C(=O)c2nn(C)cc2I)c1 (centres unmarked) [Example 13],3.55
6,Cc1cc(C)cc(C2CCCCN2C(=O)c2c(C(F)(F)F)cn(C)c2Cl)c1 (centres unmarked) [Example 22],4.59
7,Cc1cc(C)cc(C2CCCCN2C(=O)c2nn(C)cc2Br)c1 (centres unmarked) [Example 18],3.55
8,Cc1cc(C)cc(C2CCCCN2C(=O)c2cc(C)oc2C)c1 (centres unmarked) [Example 12],4.34
9,Cn1nc(C(F)F)c(C(=S)N2CCCCC2c2cccc(Cl)c2)c1Cl (centres unmarked) [Example 50],4.31
10,Cc1cc(C)cc(C2CCCCN2C(=O)c2scnc2Cl)c1 (centres unmarked) [Example 21],3.73
11,Cc1cc(C)cc(C2CCCCN2C(=O)c2nn(C)cc2Cl)c1 (centres unmarked) [Example 19],3.44
12,Cc1cc(C)cc(C2CCCCN2C(=O)c2sc(C)nc2C)c1 (centres unmarked) [Example 27],3.44
13,CCc1noc(C)c1C(=O)N1CCCCC1c1cccc(Cl)c1 (centres unmarked) [Example 45],3.48
14,CCc1nn(C)c(F)c1C(=O)N1CCCCC1c1ccc2c(c1)OCCO2 (centres unmarked) [Example 63],2.66
15,Cc1cc(C)cc(C2CCCCN2C(=O)c2sc(Br)nc2C)c1 (centres unmarked) [Example 26],4.51
16,CCc1noc(C)c1C(=O)N1CCCCC1c1ccccc1Cl (centres unmarked) [Example 38],3.29
17,Cc1cc(C(=O)N2CCCCC2c2ccccc2Cl)c(C)o1 (centres unmarked) [Example 39],3.89

# Further lines, results first:
row,logP,SMILES
1,4.06,Cc1cc(C(=O)N2CCCCC2Cc2cccc(C(F)(F)F)c2)c(C)o1 (centres unmarked) [Example 168]
2,3.59,Cc1cc(C(=O)N2CCCCC2Cc2cccc(F)c2)c(C)o1 (centres unmarked) [Example 152]
3,2.49,CCc1nn(C)c(F)c1C(=O)N1CCCCC1c1cc(OC)c(OC)c(OC)c1 (centres unmarked) [Example 109]
4,3.89,CCc1noc(C)c1C(=O)N1CCCCC1c1ccc(Cl)cc1Cl (centres unmarked) [Example 77]
5,4.36,Cc1cc(C(=O)N2CCCCC2c2cc(Cl)ccc2Cl)c(C)o1 (centres unmarked) [Example 84]
6,3.44,CCc1noc(C)c1C(=O)N1CCCCC1CCc1ccccc1 (centres unmarked) [Example 174]
7,4.65,Cc1cc(C(=O)N2CCCCC2c2cccc(Oc3ccccc3)c2)c(C)o1 (centres unmarked) [Example 111]
8,3.63,COc1ccccc1CC1CCCCN1C(=O)c1cc(C)oc1C (centres unmarked) [Example 158]
9,2.92,CCc1nn(C)c(F)c1C(=O)N1CCCCC1Cc1ccccc1 (centres unmarked) [Example 131]
10,3.35,CCc1noc(C)c1C(=O)N1CCCCC1c1ccccc1Br (centres unmarked) [Example 89]
11,2.21,COc1cc(C2CCCCN2C(=O)c2c(C)nn(C)c2F)cc(OC)c1OC (centres unmarked) [Example 106]
12,4.29,Cc1cc(C(=O)N2CCCCC2c2ccc(Br)s2)c(C)o1 (centres unmarked) [Example 127]
13,3.70,Cc1nc(C(F)F)c(C(=O)N2CCCCC2Cc2cccc(C(F)(F)F)c2)s1 (centres unmarked) [Example 167]
14,3.73,CCc1noc(C)c1C(=O)N1CCCCC1c1cccc(Cl)c1Cl (centres unmarked) [Example 74]
15,3.92,Cc1cc(C(=O)N2CCCCC2CCc2ccccc2)c(C)o1 (centres unmarked) [Example 175]
16,4.44,CCC(c1ccccc1Cl)C1CCCCN1C(=O)c1c(C(F)F)nn(C)c1Cl (centres unmarked) [Example 161]
17,3.55,CCn1nc(C)c(C(=O)N2CCCCC2c2ccc(Br)s2)c1F (centres unmarked) [Example 128]

row,logP,SMILES
1,3.78,CCc1noc(C)c1C(=O)N1CCCCC1c1cc(Cl)ccc1Cl (centres unmarked) [Example 85]
2,4.54,Cc1cc(C(=O)N2CCCCC2c2ccc(Cl)cc2Cl)c(C)o1 (centres unmarked) [Example 79]
3,3.48,COc1cc(OC)cc(C2CCCCN2C(=O)c2cc(C)oc2C)c1 (centres unmarked) [Example 70]
4,3.35,Cc1nc(C(F)F)c(C(=O)N2CCCCC2CCc2cccs2)s1 (centres unmarked) [Example 192]
5,3.65,Cn1nc(C(F)F)c(C(=O)N2CCCCC2Cc2cccc3ccccc23)c1F (centres unmarked) [Example 171]
6,3.64,CCc1noc(C)c1C(=O)N1CCCCC1c1ccc(Br)cc1 (centres unmarked) [Example 101]
7,3.60,Cc1nn(C)c(Cl)c1C(=O)N1CCCCC1c1ccc(Cl)cc1Cl (centres unmarked) [Example 75]
8,3.52,Cc1nc(C(F)F)c(C(=O)N2CCCCC2CCc2ccccc2)s1 (centres unmarked) [Example 178]
9,3.76,Cc1nc(C(F)F)c(C(=O)N2CCCCC2Cc2cccc3ccccc23)s1 (centres unmarked) [Example 170]
10,3.11,CCc1noc(C)c1C(=O)N1CCCCC1Cc1ccccc1 (centres unmarked) [Example 130]
11,3.04,COc1cc(C2CCCCN2C(=O)c2cc(C)oc2C)cc(OC)c1OC (centres unmarked) [Example 108]
12,2.64,CCc1noc(C)c1C(=O)N1CCCCC1c1cc(OC)c(OC)c(OC)c1 (centres unmarked) [Example 107]
13,3.02,CCc1noc(C)c1C(=O)N1CCCCC1c1cc(OC)cc(OC)c1 (centres unmarked) [Example 69]
14,3.79,Cc1cc(C(=O)N2CCCCC2CCc2cccs2)c(C)o1 (centres unmarked) [Example 193]
15,3.76,CCc1noc(C)c1C(=O)N1CCCCC1c1ccc2ccccc2c1 (centres unmarked) [Example 119]
16,3.17,Cc1nc(C(F)F)c(C(=O)N2CCCCC2Cc2ccccc2)s1 (centres unmarked) [Example 133]

# Same assay, conditions: reversed-phase HPLC column (C 18); HPLC, 40° C., 0.1% aqueous formic acid and acetonitrile
row,SMILES,chromatographic logP
1,Cc1ccc(C2CCCC(C)N2C(=O)c2c(C(F)F)nn(C)c2F)cc1 (centres unmarked) [Example 197],3.55
2,Cc1ccc(C2CCCC(C)N2C(=O)c2cn(C)nc2C(F)F)cc1 (centres unmarked) [Example 199],3.17
3,Cc1ccc(C2CCCC(C)N2C(=O)c2c(C(F)F)nn(C)c2Cl)cc1 (centres unmarked) [Example 198],3.73
